Results as given in patent US11753407B2, “Compounds for treating spinal muscular atrophy” (PTC Therapeutics, Inc., priority 2012, dated 2023).

What was measured:
[1] = test system: Smn protein in SMA patient fibroblast cells (GM03813); experiment: Smn protein assay in cultured cells (SMN HTRF); assay type: cell-based, human; details: SMA patient fibroblast cells, 48 hours; for EC1.5x for Smn protein expression: 7-point concentration curve, SMN HTRF, concentration producing 1.5 times Smn protein vs DMSO vehicle control; for maximum fold (Fold) increase of Smn protein: 7-point concentration data, fold relative to vehicle control
Procedure, shortened: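 Smn protein quantified by HTRF with anti-SMN d2/kryptate pair, 665/620 nm ratio blank-corrected, in RIPA lysates of GM03813 fibroblasts after 48 h compound exposure (7 concentrations, 3.16-fold steps, triplicates). Values: concentration producing 1.5× vehicle Smn level, and maximal fold increase.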

[2] = test system: SMN2 minigene mRNA (SMN2-A minigene) in HEK293H cells; experiment: SMN2 minigene mRNA splicing RT-qPCR assay in cultured cells; assay type: cell-based, human; details: Homo sapiens, HEK293-H; concentration increasing full length SMN2 mRNA 1.5-fold relative to vehicle-treated cells; HEK293H cells with SMN2-A minigene, 24 hours, 7-point concentration data; read-out: EC1.5x for production of full length SMN2 mRNA
Procedure, shortened: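 EC1.5× = concentration raising full-length SMN2 minigene mRNA 1.5-fold over vehicle, from 7-point curves in duplicate. Stably transfected HEK293H cells exposed 24 h at 37 °C; lysates assayed by multiplex RT-qPCR, minigene FL signal normalized to GAPDH via modified ΔΔCt.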

melting point [°C]	SMILES	EC1.5x for Smn protein expression [1]	maximum fold (Fold) increase of Smn protein [1]	EC (1.5-fold increase) [2] [µM]
228 to 230	Cc1cn2nc(-c3cc(=O)n4cc(N5CCN6CCC[C@@H]6C5)ccc4n3)cc2c(C)n1 [Compound 337, 2-(4,6-dimethylpyrazolo[1,5-a]pyrazin-2-yl)-7-[(8aR)-hexahydropyrrolo[1,2-a]pyrazin-2(1H)-yl]-4H-pyrido[1,2-a]pyrimidin-4-one]	**** (an EC1.5x≤0.3 μM is indicated by four stars (****))	***** (a fold increase >1.65 is indicated by five stars (*****))	< 0.1
251 to 253	CCN1CCN(c2ccc3nc(-c4cc5c(C)nc(C)cn5n4)cc(=O)n3c2)CC1 [Compound 338, 2-(4,6-dimethylpyrazolo[1,5-a]pyrazin-2-yl)-7-(4-ethylpiperazin-1-yl)-4H-pyrido[1,2-a]pyrimidin-4-one]	**** (an EC1.5x≤0.3 μM is indicated by four stars (****))	***** (a fold increase >1.65 is indicated by five stars (*****))	< 0.1
208 to 210	Cc1cn2nc(-c3cc(=O)n4cc(N5CCC(N(C)C)CC5)ccc4n3)cc2c(C)n1 [Compound 339, 7-[4-(dimethylamino)piperidin-1-yl]-2-(4,6-dimethylpyrazolo[1,5-a]pyrazin-2-yl)-4H-pyrido[1,2-a]pyrimidin-4-one]	**** (an EC1.5x≤0.3 μM is indicated by four stars (****))	***** (a fold increase >1.65 is indicated by five stars (*****))	< 0.1
195 to 197	Cc1cn2nc(-c3cc(=O)n4cc(N5CCNC(C)(C)C5)ccc4n3)cc2c(C)n1 [Compound 340, 7-(3,3-dimethylpiperazin-1-yl)-2-(4,6-dimethylpyrazolo[1,5-a]pyrazin-2-yl)-4H-pyrido[1,2-a]pyrimidin-4-one]	**** (an EC1.5x≤0.3 μM is indicated by four stars (****))	***** (a fold increase >1.65 is indicated by five stars (*****))	< 0.1
189 to 192	Cc1cn2nc(-c3cc(=O)n4cc(N5CCN(C6CC6)CC5)ccc4n3)cc2c(C)n1 [Compound 341, 7-(4-cyclopropylpiperazin-1-yl)-2-(4,6-dimethylpyrazolo[1,5-a]pyrazin-2-yl)-4H-pyrido[1,2-a]pyrimidin-4-one]	*** (an EC1.5× between >0.3 μM and ≤1 μM is indicated by three stars (***))	***** (a fold increase >1.65 is indicated by five stars (*****))	0.3 to 1
146 to 150	CCc1cc(N2CCC(N(C)C)CC2)cn2c(=O)cc(-c3ccc(OC)c(OC)c3)nc12 [Compound 345, 2-(3,4-dimethoxyphenyl)-7-[4-(dimethylamino)piperidin-1-yl]-9-ethyl-4H-pyrido[1,2-a]pyrimidin-4-one]	–	*** (a fold increase between >1.35 and ≤1.5 is indicated by three stars (***))	< 0.1
218 to 220	Cc1nc2cc(-c3cc(=O)n4cc(N5CCC(N(C)C)CC5)ccc4n3)ccc2s1 [Compound 347, 7-[4-(dimethylamino)piperidin-1-yl]-2-(2-methyl-1,3-benzothiazol-5-yl)-4H-pyrido[1,2-a]pyrimidin-4-one]	–	*** (a fold increase between >1.35 and ≤1.5 is indicated by three stars (***))	< 0.1
190 to 192	Cc1nc2cc(-c3cc(=O)n4cc(N5CCC(N)CC5)ccc4n3)ccc2s1 [Compound 348, 7-(4-aminopiperidin-1-yl)-2-(2-methyl-1,3-benzothiazol-5-yl)-4H-pyrido[1,2-a]pyrimidin-4-one]	–	** (a fold increase between >1.2 and ≤1.35 is indicated by two stars (**))	0.1 to 0.3

Second part, the molecule before the results:

SMILES	melting point [°C]	EC1.5x for Smn protein expression [1]	maximum fold (Fold) increase of Smn protein [1]	EC (1.5-fold increase) [2] [µM]
COc1ccc(-c2cc(=O)n3cc(N4CCN(C)CC4)cc(C)c3n2)cc1OC [Compound 344, 2-(3,4-dimethoxyphenyl)-9-methyl-7-(4-methylpiperazin-1-yl)-4H-pyrido[1,2-a]pyrimidin-4-one]	191 to 198	*** (an EC1.5× between >0.3 μM and ≤1 μM is indicated by three stars (***))	***** (a fold increase >1.65 is indicated by five stars (*****))	0.1 to 0.3
COc1ccc(-c2cc(=O)n3cc(C4=CCN(CCO)CC4)cc(C)c3n2)cc1OC [Compound 346, 2-(3,4-dimethoxyphenyl)-7-[1-(2-hydroxyethyl)-1,2,3,6-tetrahydropyridin-4-yl]-9-methyl-4H-pyrido[1,2-a]pyrimidin-4-one]	169 to 179	**** (an EC1.5x≤0.3 μM is indicated by four stars (****))	**** (a fold increase between >1.5 and ≤1.65 is indicated by four stars (****))	< 0.1
Cc1cn2nc(-c3cc(=O)n4cc(C5=CCN(C)CC5)ccc4n3)cc2c(C)n1 [Compound 350, 2-(4,6-dimethylpyrazolo[1,5-a]pyrazin-2-yl)-7-(1-methyl-1,2,3,6-tetrahydropyridin-4-yl)-4H-pyrido[1,2-a]pyrimidin-4-one]	193 to 197	**** (an EC1.5x≤0.3 μM is indicated by four stars (****))	***** (a fold increase >1.65 is indicated by five stars (*****))	< 0.1
CCN1CC=C(c2ccc3nc(-c4cc5c(C)nc(C)cn5n4)cc(=O)n3c2)CC1 [Compound 351, 2-(4,6-dimethylpyrazolo[1,5-a]pyrazin-2-yl)-7-(1-ethyl-1,2,3,6-tetrahydropyridin-4-yl)-4H-pyrido[1,2-a]pyrimidin-4-one]	202 to 204	**** (an EC1.5x≤0.3 μM is indicated by four stars (****))	***** (a fold increase >1.65 is indicated by five stars (*****))	< 0.1
CCCN1CC=C(c2ccc3nc(-c4cc5c(C)nc(C)cn5n4)cc(=O)n3c2)CC1 [Compound 352, 2-(4,6-dimethylpyrazolo[1,5-a]pyrazin-2-yl)-7-(1-propyl-1,2,3,6-tetrahydropyridin-4-yl)-4H-pyrido[1,2-a]pyrimidin-4-one]	191 to 193	**** (an EC1.5x≤0.3 μM is indicated by four stars (****))	**** (a fold increase between >1.5 and ≤1.65 is indicated by four stars (****))	< 0.1
Cc1cn2nc(-c3cc(=O)n4cc(C5=CCN(C(C)C)CC5)ccc4n3)cc2c(C)n1 [Compound 355, 2-(4,6-dimethylpyrazolo[1,5-a]pyrazin-2-yl)-7-[1-(propan-2-yl)-1,2,3,6-tetrahydropyridin-4-yl]-4H-pyrido[1,2-a]pyrimidin-4-one]	186 to 189	*** (an EC1.5× between >0.3 μM and ≤1 μM is indicated by three stars (***))	**** (a fold increase between >1.5 and ≤1.65 is indicated by four stars (****))	< 0.1
Cc1cn2nc(-c3cc(=O)n4cc(C5=CCN(C6CCC6)CC5)ccc4n3)cc2c(C)n1 [Compound 356, 7-(1-cyclobutyl-1,2,3,6-tetrahydropyridin-4-yl)-2-(4,6-dimethylpyrazolo[1,5-a]pyrazin-2-yl)-4H-pyrido[1,2-a]pyrimidin-4-one]	191 to 193	*** (an EC1.5× between >0.3 μM and ≤1 μM is indicated by three stars (***))	**** (a fold increase between >1.5 and ≤1.65 is indicated by four stars (****))	< 0.1
COc1ccc(-c2cc(=O)n3cc(N4CCNCC4)c(C)cc3n2)cc1OC [Compound 360, 2-(3,4-dimethoxyphenyl)-8-methyl-7-(piperazin-1-yl)-4H-pyrido[1,2-a]pyrimidin-4-one]	161 to 169	–	* (A maximum fold increase of ≤1.2 is indicated by one star (*))	1 to 3
COc1ccc(-c2cc(=O)n3cc(C4=CCN(C5CCC5)CC4)ccc3n2)cc1OC [Compound 362, 7-(1-cyclobutyl-1,2,3,6-tetrahydropyridin-4-yl)-2-(3,4-dimethoxyphenyl)-4H-pyrido[1,2-a]pyrimidin-4-one]	152 to 154	–	*** (a fold increase between >1.35 and ≤1.5 is indicated by three stars (***))	0.3 to 1
COc1ccc(-c2cc(=O)n3cc(C4=CCN(C(C)C)CC4)ccc3n2)cc1OC [Compound 363, 2-(3,4-dimethoxyphenyl)-7-[1-(propan-2-yl)-1,2,3,6-tetrahydropyridin-4-yl]-4H-pyrido[1,2-a]pyrimidin-4-one]	116 to 118	–	** (a fold increase between >1.2 and ≤1.35 is indicated by two stars (**))	0.3 to 1
